# Test results: patent US20120245154A1, “SUBSTITUTED AMINOTHIAZINE DERIVATIVE” (SHIONOGI & CO., LTD., priority 2009, published 2012)
# What was measured:
# [1] = Brain distribution studies; type: in vivo; conditions: brain/plasma, iv; rat, intravenously 0.5 mg/mL/kg, 30 minutes later; read-out: brain Kp value (area ratio brain/plasma)
# Experimental: Compound of the present invention was intravenously administered to a rat at 0.5 mg/mL/kg dosage. […] The brain was enucleated and 20-25% of homogenate thereof was prepared with distilled water. The obtained blood was used as plasma after centrifuging. To the brain sample was added the control plasma at 1:1. To the plasma samples was added the control brains at 1:1. Each sample was measured using LC/MS/MS. The obtained area ratio (a brain/plasma) was used for the brain Kp value.
# hERG channel (IKr) = target: T1, hERG channel (IKr) (Homo sapiens, UniProt Q12809); experiment: hERG test; type: cell-based; conditions: HEK293 cells expressing hERG channel, pH 7.4, whole cell patch clamp, concentration not given, read-out: % inhibition relative to the tail peak current (IKr)
# T1 construct: expressed in transfected cells; host or cells: HEK293
# Source text: For the purpose of assessing risk of an electrocardiogram QT interval prolongation, effects on delayed rectifier K+ current (IKr), which plays an important role in the ventricular repolarization process, was studied using HEK293 cells expressing human ether-a-go-go related gene (hERG) channel.
# After a cell was retained at a membrane potential of −80 mV by whole cell patch clamp method using an automated patch clamp system (PatchXpress 7000A, Axon Instruments Inc.), IKr induced by depolarization pulse stimulation at +50 mV for 2 seconds and, further, repolarization pulse stimulation at −50 mV for 2 seconds was recorded. […] From the recording IKr, an absolute value of the tail peak current was measured based on the current value at the resting membrane potential using an analysis software (DataXpress vet.1, Molecular Devices Corporation). Further, the % inhibition relative to the tail peak current before application of the test substance was calculated, and compared with the vehicle-applied group (0.1% dimethyl sulfoxide solution) to assess influence of the test substance on IKr.
# T1 sequence (Q12809 whole entry): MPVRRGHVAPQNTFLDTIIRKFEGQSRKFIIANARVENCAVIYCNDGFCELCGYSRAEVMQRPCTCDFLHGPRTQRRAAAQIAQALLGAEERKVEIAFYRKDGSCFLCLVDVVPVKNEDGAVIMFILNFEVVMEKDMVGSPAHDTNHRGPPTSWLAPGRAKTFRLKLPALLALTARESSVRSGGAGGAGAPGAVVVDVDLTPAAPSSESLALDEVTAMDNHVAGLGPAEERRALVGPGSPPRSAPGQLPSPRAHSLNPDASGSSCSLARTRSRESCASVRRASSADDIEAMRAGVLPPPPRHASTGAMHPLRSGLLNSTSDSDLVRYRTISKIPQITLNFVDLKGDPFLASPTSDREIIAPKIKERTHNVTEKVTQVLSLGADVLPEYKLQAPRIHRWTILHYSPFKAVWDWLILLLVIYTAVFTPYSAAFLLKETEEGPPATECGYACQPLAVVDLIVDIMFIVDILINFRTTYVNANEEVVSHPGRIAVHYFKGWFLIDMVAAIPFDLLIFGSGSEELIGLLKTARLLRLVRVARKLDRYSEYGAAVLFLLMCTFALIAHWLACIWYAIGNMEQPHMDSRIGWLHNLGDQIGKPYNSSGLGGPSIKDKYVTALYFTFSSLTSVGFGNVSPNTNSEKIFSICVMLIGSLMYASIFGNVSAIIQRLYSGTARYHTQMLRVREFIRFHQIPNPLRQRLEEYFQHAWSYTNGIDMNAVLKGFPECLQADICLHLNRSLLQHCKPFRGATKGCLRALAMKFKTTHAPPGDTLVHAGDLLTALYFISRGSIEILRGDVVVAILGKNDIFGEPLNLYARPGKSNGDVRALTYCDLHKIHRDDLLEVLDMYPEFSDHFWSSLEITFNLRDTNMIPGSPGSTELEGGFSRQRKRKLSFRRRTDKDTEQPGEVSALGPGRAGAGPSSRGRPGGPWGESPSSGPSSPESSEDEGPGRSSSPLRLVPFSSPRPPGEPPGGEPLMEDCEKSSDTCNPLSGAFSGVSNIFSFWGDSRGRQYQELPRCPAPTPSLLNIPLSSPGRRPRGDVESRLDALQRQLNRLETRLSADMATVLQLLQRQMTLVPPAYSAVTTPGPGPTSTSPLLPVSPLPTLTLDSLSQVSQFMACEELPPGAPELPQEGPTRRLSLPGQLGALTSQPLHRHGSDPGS
Kp at 0.5 h [1],Structure (SMILES),inhibition at 10 min (hERG channel (IKr)) [%]
2.5,CC(C)C1=C[C@@](C)(c2cc(NC(=O)c3ccc(C#N)cn3)ccc2F)N=C(N)S1 [Compound I-54],–
–,Cc1cnc(C(=O)Nc2ccc(F)c([C@]3(C)C=C(C(F)F)SC(N)=N3)c2)cn1 [Compound I-14],3.8
